# Laboratory results reported in ChEMBL document CHEMBL4190299, “Design, Synthesis, and Cancer Cell Growth Inhibitory Activity of Triphenylphosphonium Derivatives of the Triterpenoid Betulin” (J Nat Prod, 2017).
# Active and inactive are the calls of the source. The calls are words filed in the database; no cut-off is given here.
# Assays:
# PC-3 [1] = assay: Cytotoxicity against human PC3 cells assessed as reduction in cell viability after 72 hrs by MTT assay; assay type: functional, cell-based; details: PC-3, 72 h
# [2] = Cytotoxicity against human HSF cells assessed as reduction in cell viability after 72 hrs by MTT assay; assay type: cell-based
# PC-3 [3] = assay: Induction of mitochondrial membrane potential loss in human PC3 cells assessed as fluorescence intensity at cytotoxic IC50 after 48 hrs by TMRE dye-based fluorescence assay based flow cytometry (reference value: 210.8); assay type: functional
# PC-3 [4] = assay: Induction of mitochondrial membrane potential loss in human PC3 cells assessed as fluorescence intensity at cytotoxic IC50 after 48 hrs by TMRE dye-based fluorescence assay based flow cytometry relative to untreated control; assay type: functional
# PC-3 [5] = assay: Induction of cell cycle arrest in human PC3 cells assessed as effect on G0/G1 phase at cytotoxic IC50 after 48 hrs by propidium iodide staining based flow cytometry; assay type: functional
# PC-3 [6] = assay: Induction of cell cycle arrest in human PC3 cells assessed as effect on S phase at cytotoxic IC50 after 48 hrs by propidium iodide staining based flow cytometry; assay type: functional
# PC-3 [7] = assay: Induction of cell cycle arrest in human PC3 cells assessed as effect on G2/M phase at cytotoxic IC50 after 48 hrs by propidium iodide staining based flow cytometry; assay type: functional
# MCF7 = assay: cells; details: Homo sapiens, MCF7, 72 h
# Description: Cytotoxicity against human MCF7 cells assessed as reduction in cell viability after 72 hrs by MTT assay
SMILES,IC50 (PC-3 [1]) [nM],IC50 [2] [nM],Flu intensity (PC-3 [3]),fold change (FC) (PC-3 [4]),Activity (PC-3 [5]),Activity (PC-3 [6]),Activity (PC-3 [7]),IC50 (MCF7) [nM],Activity (PC-3 [4]) [%]
C=C(C)[C@@H]1CC[C@]2(COC(=O)CCCC[P+](c3ccccc3)(c3ccccc3)c3ccccc3)CC[C@]3(C)[C@H](CC[C@@H]4[C@@]5(C)CC[C@H](OC(=O)CCCC[P+](c6ccccc6)(c6ccccc6)c6ccccc6)C(C)(C)[C@@H]5CC[C@]43C)[C@@H]12.[Br-].[Br-],470,760,112.2,2,inactive,inactive,inactive,480,–
C=C(C)[C@@H]1CC[C@]2(COC(=O)CCC[P+](c3ccccc3)(c3ccccc3)c3ccccc3)CC[C@]3(C)[C@H](CC[C@@H]4[C@@]5(C)CC[C@H](O)C(C)(C)[C@@H]5CC[C@]43C)[C@@H]12,160,2100,–,–,–,–,–,430,–
COc1cccc2c1C(=O)c1c(O)c3c(c(O)c1C2=O)C[C@@](O)(C(=O)CO)C[C@@H]3O[C@H]1C[C@H](N)[C@H](O)[C@H](C)O1 [DOXORUBICIN],–,–,–,–,–,–,–,150,–
C=C(C)[C@@H]1CC[C@]2(CO)CC[C@]3(C)[C@H](CC[C@@H]4[C@@]5(C)CC[C@H](O)C(C)(C)[C@@H]5CC[C@]43C)[C@@H]12 [BETULIN],–,–,205.9,–,inactive,inactive,inactive,–,–
C=C(C)[C@@H]1CC[C@]2(COC(=O)C[P+](c3ccccc3)(c3ccccc3)c3ccccc3)CC[C@]3(C)[C@H](CC[C@@H]4[C@@]5(C)CC[C@H](O)C(C)(C)[C@@H]5CC[C@]43C)[C@@H]12,6800,9900,–,–,–,–,–,> 10000,–
C=C(C)[C@@H]1CC[C@]2(COC(=O)CCCC[P+](c3ccccc3)(c3ccccc3)c3ccccc3)CC[C@]3(C)[C@H](CC[C@@H]4[C@@]5(C)CC[C@H](O)C(C)(C)[C@@H]5CC[C@]43C)[C@@H]12.[Br-],120,1500,186.6,–,inactive,inactive,inactive,700,–
C=C(C)[C@@H]1CC[C@]2(COC(=O)C[P+](c3ccccc3)(c3ccccc3)c3ccccc3)CC[C@]3(C)[C@H](CC[C@@H]4[C@@]5(C)CC[C@H](OC(=O)C[P+](c6ccccc6)(c6ccccc6)c6ccccc6)C(C)(C)[C@@H]5CC[C@]43C)[C@@H]12,6900,5600,–,–,–,–,–,8700,–
CC[C@]1(O)C[C@@H]2CN(CCc3c([nH]c4ccccc34)[C@@](C(=O)OC)(c3cc4c(cc3OC)N(C)[C@H]3[C@@](O)(C(=O)OC)[C@H](OC(C)=O)[C@]5(CC)C=CCN6CC[C@]43[C@@H]65)C2)C1 [VINBLASTINE],–,–,–,–,–,–,–,500,–
C=C(C)[C@@H]1CC[C@]2(COC(=O)CCCCBr)CC[C@]3(C)[C@H](CC[C@@H]4[C@@]5(C)CC[C@H](OC(=O)CCCCBr)C(C)(C)[C@@H]5CC[C@]43C)[C@@H]12,–,–,187.9,–,inactive,inactive,inactive,–,10
C=C(C)[C@@H]1CC[C@]2(COC(=O)CCC[P+](c3ccccc3)(c3ccccc3)c3ccccc3)CC[C@]3(C)[C@H](CC[C@@H]4[C@@]5(C)CC[C@H](OC(=O)CCC[P+](c6ccccc6)(c6ccccc6)c6ccccc6)C(C)(C)[C@@H]5CC[C@]43C)[C@@H]12.[Br-].[Br-],540,860,90.1,2,inactive,inactive,inactive,350,–
